Measured values as given in US20070231406A1, “Use of gallium to treat biofilm-associated infections” (priority 2006, published 2007).
Read-outs that look alike come from different tables or passages of the source.

Key:
[1] = test system: Pseudomonas aeruginosa Xen5; assay: Biophotonic monitoring of catheter-associated UTI with bioluminescent P. aeruginosa Xen5 in CF-1 female mice; assay type: in vivo
Method: (§1) Catheter-associated UTI with Pseudomonas aeruginosa Xen5 (10^6 CFU/catheter) in CF-1 female mice was established as described by Kadurugamuwa et al. (2005) Infection and Immunity 73(7):3878-87). Gallium maltolate (GaM) was assessed for efficacy against urinary tract infection (UTI) by P. aeruginosa, alone or in combination with ciprofloxacin (cipro) using bioluminescent engineered P. aeruginosa Xen5 in a CF-1 female mice UTI model that allows real time monitoring of infection with the Xenogen IVIS® Imaging System.
(§2) Catheter-associated UTI with P. aeruginosa (10^6 colony forming units (CFU)/catheter) were established in mice and treated 2 days after infection for 4 consecutive days with GaM alone; or cipro alone; or the combination of GaM and cipro. A second cycle of treatment was started on days 9-11 and the study terminated on day 21. Controls included saline-treated uninfected and infected animals.
Ciprofloxacin US Pharmacopeia, Rockville, Md.) and gallium maltolate were administered by oral gavage. Ciprofloxacin was given in 0.2 mL of water and gallium maltolate in 0.2 mL water containing 1% carboxylmethyl cellulose. A second group of animals served as an untreated infection control group by being implanted with infected catheters and treated with saline. In another control group, animals were implanted with sterile catheters and served as a negative control.
Therapeutic agents were readministered for 3 consecutive days, after 4 days of cessation of the initial 4-day therapy.

[2] = test system: P. aeruginosa Xen 5; assay type: in vivo, Pseudomonas aeruginosa
Method: as §1, §2

[3] = test system: P. aeruginosa Xen5; assay type: in vivo, Pseudomonas aeruginosa
Method: as §1, §2

[4] = Pharmacokinetics of serum gallium (ICP-MS) after oral gallium maltolate in female CF-1 mice; assay type: in vivo; conditions: 30 and 300 mg/kg oral gavage q.d. for 4 days
Method: Adult, female CF-1 mice (initial weight range 32-39 gram) were treated with 30 and 300 mg/kg gallium maltolate by oral gavage q.d. for 4 consecutive days. Both doses were administered in the same volume of drug solution, i.e., 480 μL of 2.5 and 25 mg/mL gallium maltolate in 1% carboxyl methylcellulose. Blood was drawn at the following time points after the final dose administration: 0, 0.5, 1 3, 6, 9, 12, 24, 33 and 48 hours. Blood drawn at time point ‘0’ was taken immediately after dosing. Blood samples were collected within ±5% of the scheduled time point. Whole blood (500 to 1000 μL) was drawn from a single mouse by cardiac puncture, and four mice were sacrificed per time point for each dosing group. After blood collection, the specimens were held at room temperature to allow for clot formation followed by centrifugation to obtain serum. The concentration of gallium in 100 μL serum was determined by Inductively Coupled Plasma—Mass Spectrometry (ICP-MS).
After a weighted linear regression analysis calibration curve had been established and validated by quality control analysis, serum gallium concentrations in the samples were measured and the results plotted.

[5] = 7 days after infection, gallium maltolate 300 mg/kg q.d. oral
[6] = 11 days after infection, gallium maltolate 30 mg/kg q.d. oral
[7] = 11 days after infection, gallium maltolate 100 mg/kg q.d. oral
[8] = 11 days after infection, gallium maltolate 300 mg/kg q.d. oral
[9] = 14 days after infection, gallium maltolate 300 mg/kg q.d. oral
[10] = 16 days after infection, gallium maltolate 30 mg/kg q.d. oral
[11] = 16 days after infection, gallium maltolate 100 mg/kg q.d. oral
[12] = 16 days after infection, gallium maltolate 300 mg/kg q.d. oral
[13] = 17 days after infection, gallium maltolate 30 mg/kg q.d. oral
[14] = 17 days after infection, gallium maltolate 100 mg/kg q.d. oral
[15] = 17 days after infection, gallium maltolate 300 mg/kg q.d. oral
[16] = 21 days after infection, gallium maltolate 30 mg/kg q.d. oral
[17] = 21 days after infection, gallium maltolate 100 mg/kg q.d. oral
[18] = 21 days after infection, gallium maltolate 300 mg/kg q.d. oral
[19] = gallium maltolate 30 mg/kg q.d. oral
[20] = gallium maltolate 100 mg/kg q.d. oral
[21] = gallium maltolate 300 mg/kg q.d. oral

Cc1occc(=O)c1[O-].Cc1occc(=O)c1[O-].Cc1occc(=O)c1[O-].[Ga+3] [Gallium maltolate, gallium maltolate]
Percent bacterial growth in animals compared to untreated control ([1]; Day 2, gallium maltolate 30 mg/kg q.d. oral): 100% | Percent bacterial growth in animals compared to untreated control ([1]; Day 2, gallium maltolate 100 mg/kg q.d. oral): 100% | Percent bacterial growth in animals compared to untreated control ([1]; Day 2, gallium maltolate 300 mg/kg q.d. oral): 100% | Percent bacterial growth in animals compared to untreated control ([1]; Day 5, gallium maltolate 30 mg/kg q.d. oral): 60% | Percent bacterial growth in animals compared to untreated control ([1]; Day 5, gallium maltolate 100 mg/kg q.d. oral): 33% | Percent bacterial growth in animals compared to untreated control ([1]; Day 5, gallium maltolate 300 mg/kg q.d. oral): 19% | Percent bacterial growth in animals compared to untreated control ([1]; Day 8, gallium maltolate 30 mg/kg q.d. oral): 10% | Percent bacterial growth in animals compared to untreated control ([1]; Day 8, gallium maltolate 100 mg/kg q.d. oral): 12% | Percent bacterial growth in animals compared to untreated control ([1]; Day 8, gallium maltolate 300 mg/kg q.d. oral): 7% | Percent bacterial growth in animals compared to untreated control ([1]; Day 10, gallium maltolate 30 mg/kg q.d. oral): 13% | Percent bacterial growth in animals compared to untreated control ([1]; Day 10, gallium maltolate 100 mg/kg q.d. oral): 2% | Percent bacterial growth in animals compared to untreated control ([1]; Day 10, gallium maltolate 300 mg/kg q.d. oral): 4% | Percent bacterial growth in animals compared to untreated control ([1]; Day 15, gallium maltolate 30 mg/kg q.d. oral): 54% | Percent bacterial growth in animals compared to untreated control ([1]; Day 15, gallium maltolate 100 mg/kg q.d. oral): 11% | Percent bacterial growth in animals compared to untreated control ([1]; Day 15, gallium maltolate 300 mg/kg q.d. oral): 20% | Percent bacterial growth in animals compared to untreated control ([1]; Day 21, gallium maltolate 30 mg/kg q.d. oral): 22% | Percent bacterial growth in animals compared to untreated control ([1]; Day 21, gallium maltolate 100 mg/kg q.d. oral): 1% | Percent bacterial growth in animals compared to untreated control ([1]; Day 21, gallium maltolate 300 mg/kg q.d. oral): 8% | Recurrence of infection after termination of administration ([1]; gallium maltolate 300 mg/kg): recurrence of high levels of infection did not occur | Bioluminescence signal level ([1]; gallium maltolate 300 mg/kg, remained until termination on day 21): approximately 10^5 photons/catheter | Antibacterial growth activity compared to untreated control ([1]; gallium maltolate 30 and 100 mg/kg): showed antibacterial growth activity | Bacterial counts in urine, Geometric Mean [2, 5]: 3.0 × 10^5 CFU/ml | Range of bacterial counts in urine [2, 5]: 1.3 × 10^5-1.5 × 10^6 CFU/ml | Bacterial counts in urine, Geometric Mean [2, 6]: 1.5 × 10^5 CFU/ml | Range of bacterial counts in urine [2, 6]: 1.2 × 10^5-1.8 × 10^5 CFU/ml | Bacterial counts in urine, Geometric Mean [2, 7]: 4.6 × 10^4 CFU/ml | Range of bacterial counts in urine [2, 7]: 2.0 × 10^2-6.0 × 10^6 CFU/ml | Bacterial counts in urine, Geometric Mean [2, 8]: 1.1 × 10^5 CFU/ml | Range of bacterial counts in urine [2, 8]: 2.2 × 10^4-6.2 × 10^5 CFU/ml | Bacterial counts in urine, Geometric Mean [2, 9]: 2.3 × 10^5 CFU/ml | Range of bacterial counts in urine [2, 9]: 1.2 × 10^5-6.0 × 10^5 CFU/ml | Bacterial counts in urine, Geometric Mean [2, 10]: 2.4 × 10^5 CFU/ml | Range of bacterial counts in urine [2, 10]: 1.2 × 10^5-6.0 × 10^5 CFU/ml | Bacterial counts in urine, Geometric Mean [2, 11]: 1.1 × 10^4 CFU/ml | Range of bacterial counts in urine [2, 11]: 2.0 × 10^2-3.0 × 10^6 CFU/ml | Bacterial counts in urine, Geometric Mean [2, 12]: 5.8 × 10^5 CFU/ml | Range of bacterial counts in urine [2, 12]: 3.2 × 10^5-8 × 10^5 CFU/ml | Bacterial counts in urine, Geometric Mean [2, 13]: 1.6 × 10^5 CFU/ml | Range of bacterial counts in urine [2, 13]: 4.0 × 10^4-6.0 × 10^5 CFU/ml | Bacterial counts in urine, Geometric Mean [2, 14]: 2.9 × 10^4 CFU/ml | Range of bacterial counts in urine [2, 14]: 2.0 × 10^2-2.0 × 10^6 CFU/ml | Bacterial counts in urine, Geometric Mean [2, 15]: 3.2 × 10^5 CFU/ml | Range of bacterial counts in urine [2, 15]: 4.0 × 10^4-1.6 × 10^6 CFU/ml | Bacterial counts in urine, Geometric Mean [2, 16]: 1.6 × 10^5 CFU/ml | Range of bacterial counts in urine [2, 16]: 1.2 × 10^4-2.0 × 10^6 CFU/ml | Bacterial counts in urine, Geometric Mean [2, 17]: 8.2 × 10^3 CFU/ml | Range of bacterial counts in urine [2, 17]: 2.0 × 10^2-1.4 × 10^6 CFU/ml | Bacterial counts in urine, Geometric Mean [2, 18]: 3.1 × 10^5 CFU/ml | Range of bacterial counts in urine [2, 18]: 1.6 × 10^5-5.6 × 10^6 CFU/ml | Kidney infections at the termination of the study ([3]; at all doses tested, day 21): free of kidney infections | % Mortality [3, 19]: 25.0% | No. of animals with a kidney signal at day 21/Total no. of animals [3, 19]: 0/3 | % Mortality [3, 20]: 25.0% | No. of animals with a kidney signal at day 21/Total no. of animals [3, 20]: 0/3 | % Mortality [3, 21]: 0.0% | No. of animals with a kidney signal at day 21/Total no. of animals [3, 21]: 0/4 | Initial half-life of elimination of serum gallium [4]: 8 to 12 h | Time of peak serum gallium concentration ([4]; after final dose): within half hour
